Source: patent US11628159B2, “Cell-protective compounds and their use” (ETH ZURICH, priority 2017, dated 2023)

B1: RKIP: raf kinase inhibitor protein, a dual-specific GRK2 and Raf kinase inhibitor (protein, UniProt P30086 2-187, looked up)
Phosphatidylethanolamine-bindi …: PVDLSKWSGPLSLQEVDEQPQHPLHVTYAGAAVDELGKVLTPTQVKNRPTSISWDGLDSGKLYTLVLTDPDAPSRKDPKYREWHHFLVVNMKGNDISSGTVLSDYVGSGPPKGTGLHRYVWLVYEQDRPLKCDEPILSNRSGDHRGKFKVASFRKKYELRAPVAGTCYQAEWDDYVPKLYEQLSGK

Key:
B6 mice with AAC = assay: Chronic pressure overload (AAC) model, 7 days of treatment: cardiac p-Srsf1 and echocardiography; type: in vivo, mouse; conditions: 5 mg/kg/d for 7 days
Protocol: A, The GRK2-mediated phosphorylation of Srsf1 was determined by immunoblot in cardiac lysates prepared from hearts of non-transgenic B6 mice after treatment (i.p.) for 5 h with 10 mg/kg of 1-(1,3-benzodioxol-5-yl)-4-(cyclopropane-carbonyl)-3-hydroxy-2-phenyl-2H-pyrrol-5-one (“Compound-1”), 4-(1,3-benzodioxol-5-yl)pyrimidine (“Compound-4”), 1-(1,3-benzodioxol-5-ylmethyl)-5-(4-fluorophenyl)-2-methyl-pyrrole-3-carboxamide (“Compound-2”), or (4R)-N3-(1,3-benzodioxol-5-ylmethyl)-N4-[[3-(trifluoromethyl)phenyl]-methyl]pyrrolidine-3,4-dicarboxamide (“Compound-5”) relative to vehicle-treated B6 controls (“con”). […] B, Left panel: The AAC-induced cardiac p-Srsf1 content was determined in cardiac lysates from B6 mice with AAC after treatment for 7 days with 5 mg/kg/d of 1-(1,3-benzodioxol-5-yl)-4-(cyclopropane-carbonyl)-3-hydroxy-2-phenyl-2H-pyrrol-5-one (“Compound-1”) or (4R)-N3-(1,3-benzodioxol-5-ylmethyl)-N4-[[3-(trifluoromethyl)phenyl]-methyl]pyrrolidine-3,4-dicarboxamide (“Compound-5”) relative to vehicle-treated B6 controls with AAC (“AAC-con”). […] Right and lower panels: Cardiac function parameters were determined by echocardiography in B6 mice with AAC after treatment for 7 days with “Compound-1” or “Compound-5” relative to vehicle-treated B6 controls with AAC ((±s.d.; n=5 (A) and n=3 (B); Dunnett's Multiple Comparison Test vs. con (A) or AAC-con (B)). […]

GRK2 = molecular target: T1, GRK2 (Mus musculus, UniProt Q99MK8); assay: Depletion of GRK2 from Tg-RKIP heart lysates by affinity purification of RKIP; type: binding; conditions: serine-153 phosphorylated transgenic RKIP, n=4
T1 construct: from tissue; host or cells: heart lysate of Tg-RKIP mice
T1 sequence (Q99MK8 1-689): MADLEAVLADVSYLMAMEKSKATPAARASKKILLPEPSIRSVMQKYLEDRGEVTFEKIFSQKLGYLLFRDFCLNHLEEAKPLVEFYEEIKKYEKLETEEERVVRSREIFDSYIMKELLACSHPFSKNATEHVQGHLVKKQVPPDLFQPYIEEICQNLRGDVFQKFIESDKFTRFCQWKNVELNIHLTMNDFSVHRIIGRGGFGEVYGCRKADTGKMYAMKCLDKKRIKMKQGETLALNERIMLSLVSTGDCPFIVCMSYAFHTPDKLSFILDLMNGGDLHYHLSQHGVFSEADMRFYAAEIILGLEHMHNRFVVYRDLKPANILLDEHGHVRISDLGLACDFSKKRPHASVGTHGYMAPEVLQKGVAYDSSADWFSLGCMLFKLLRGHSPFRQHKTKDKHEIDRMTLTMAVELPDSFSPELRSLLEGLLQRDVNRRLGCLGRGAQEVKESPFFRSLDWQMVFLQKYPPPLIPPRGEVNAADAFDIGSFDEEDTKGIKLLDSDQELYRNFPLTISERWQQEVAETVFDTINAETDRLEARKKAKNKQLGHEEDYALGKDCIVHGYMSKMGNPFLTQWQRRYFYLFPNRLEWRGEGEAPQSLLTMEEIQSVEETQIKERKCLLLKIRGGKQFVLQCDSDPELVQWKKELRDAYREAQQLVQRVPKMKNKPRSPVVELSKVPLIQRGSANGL
Text: A, Immunoblot detection of serine-153 phosphorylation of RKIP (pS153) in Tg-RKIP and B6 control hearts (n=5 mice/group). B, Removal of RKIP by affinity purification (AP) with immobilized RKIP-specific antibodies depletes the GRK2 protein from Tg-RKIP heart lysates. A control affinity purification with unrelated antibodies did neither deplete RKIP nor GRK2. Upper panels show representative experiments and lower panels show quantitative data evaluation (±s.d., n=4; *, p=0.0286; Mann Whitney Test). C, Isoproterenol-stimulated cAMP response in neonatal cardiomyocytes from Tg-RKIP and Tg-GRK2-K220R mice (n=6; ±s.d.).
The GRK2-inhibitory activity of transgenic RKIP (human RKIP˜PEBP1) was controlled in vivo. The phosphorylation of RKIP on serine-153 switches RKIP from Raf1 inhibition to GRK2 inhibition (Lorenz K, et al., Nature 426, 574-579 (2003)). Substantial serine-153 phosphorylation of RKIP was documented by immunoblot detection in Tg-RKIP hearts (FIG. 7A). […] We determined the GRK2 inhibition-mediated resensitization of the isoproterenol-stimulated cAMP response in neonatal cardiomyocytes as readout for GRK2 inhibition by RKIP and GRK2-K220R, respectively (Abd Alla, J, et al., J. Biol. Chem. 291, 2583-2600 (2016); Kong K C, et al., Biochemistry 47, 9279-9288 (2008)).

Molecule | cardiac performance after chronic pressure overload imposed by AAC (B6 mice with AAC; echocardiography) | chronic pressure overload-induced cardiac p-Srsf1 content (B6 mice with AAC; relative to vehicle) | GRK2 protein bound and neutralized in Tg-RKIP hearts (GRK2) [%]
O=C(C1=C(O)C(c2ccccc2)N(c2ccc3c(c2)OCO3)C1=O)C1CC1 (stereo not drawn) [Compound-1, 1-(1,3-benzodioxol-5-yl)-4-(cyclopropane-carbonyl)-3-hydroxy-2-phenyl-2H-pyrrol-5-one] | improved | retarded | –
B1 | – | – | 90.4
